Measured values from patent US8361998B2, “Compounds and their use as IKACh blockers” (AstraZeneca AB, priority 2010, dated 2013).

Biological target: T1, human cardiac ion channel proteins hKir3.1/Kir3.4 (Homo sapiens, UniProt P48544+P48549)
T1 construct: expressed in transfected cells
T1 sequence (P48549 1-501): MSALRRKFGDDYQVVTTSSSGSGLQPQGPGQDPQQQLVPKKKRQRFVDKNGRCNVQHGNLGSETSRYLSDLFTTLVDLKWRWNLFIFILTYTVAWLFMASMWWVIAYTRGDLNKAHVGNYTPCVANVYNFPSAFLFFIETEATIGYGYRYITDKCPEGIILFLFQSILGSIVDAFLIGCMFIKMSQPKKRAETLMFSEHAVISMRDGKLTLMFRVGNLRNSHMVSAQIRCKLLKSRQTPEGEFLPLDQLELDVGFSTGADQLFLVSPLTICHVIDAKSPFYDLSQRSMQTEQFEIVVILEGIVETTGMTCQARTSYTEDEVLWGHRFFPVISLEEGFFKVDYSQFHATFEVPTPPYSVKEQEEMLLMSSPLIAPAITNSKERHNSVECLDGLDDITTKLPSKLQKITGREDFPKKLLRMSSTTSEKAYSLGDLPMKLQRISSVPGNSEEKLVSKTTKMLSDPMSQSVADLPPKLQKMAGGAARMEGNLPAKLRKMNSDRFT
T1 sequence (P48544 1-419): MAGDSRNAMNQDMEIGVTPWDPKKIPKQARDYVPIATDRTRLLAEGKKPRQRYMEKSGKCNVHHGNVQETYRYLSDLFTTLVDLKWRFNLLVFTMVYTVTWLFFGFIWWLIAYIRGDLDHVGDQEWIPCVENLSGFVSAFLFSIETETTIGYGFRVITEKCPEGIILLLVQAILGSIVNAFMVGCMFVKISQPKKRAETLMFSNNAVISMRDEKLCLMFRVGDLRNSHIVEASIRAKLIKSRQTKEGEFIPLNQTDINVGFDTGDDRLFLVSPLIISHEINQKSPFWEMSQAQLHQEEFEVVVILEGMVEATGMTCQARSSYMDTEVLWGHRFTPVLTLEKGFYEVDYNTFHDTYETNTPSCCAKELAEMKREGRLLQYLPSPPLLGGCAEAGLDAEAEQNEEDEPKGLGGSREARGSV
Experiment: Atomic Absorption Screening (AAS) Rb efflux assay of hKir3.1/Kir3.4 block, carbachol/high K+ stimulated, 10-pt or 7-pt CR
Type: cell-based
Details: 10-pt CR (0.003 to 67 μmol/L), AAS Rb efflux, CHO-K1 cells expressing hKir3.1/Kir3.4; mean of >4 replicates; read-out: IKACh IC50 10-pt CR, AAS
Outline: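 CHO-K1 cells stably co-expressing human Kir3.1/Kir3.4 were Rb-loaded for 3 h at 37° C, preincubated with compound 5 min at RT, then stimulated 10 min with 10 μM carbachol plus 20 mM KCl (final). Supernatant Rb was measured by atomic absorption. Compounds ran at 0.003–67 μmol/L (10-pt) or 0.037–27 μmol/L (7-pt), threefold dilutions; IC50s are means of >4 or >3 replicates respectively.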

Row | SMILES | IC50 [nM]
1 | CN(C(=O)c1cccc(Cl)c1F)[C@@H](CN1CC(O)C1)C1CCC1 [Example 35.11, 3-Chloro-N-[(1R)-1-cyclobutyl-2-(3-hydroxyazetidin-1-yl)ethyl]-2-fluoro-N-methylbenzamide] | 4800
2 | COc1ccc(C(=O)N(C)[C@@H](CN2CC(O)C2)C2CCC2)c(F)c1 [Example 35.12, N-[(1R)-1-Cyclobutyl-2-(3-hydroxyazetidin-1-yl)ethyl]-2-fluoro-4-methoxy-N-methylbenzamide] | 16000
3 | COc1ccc(C(=O)N(C)[C@@H](CN2CC(O)C2)C2CCC2)cc1F [Example 35.13, N-[(1R)-1-Cyclobutyl-2-(3-hydroxyazetidin-1-yl)ethyl]-3-fluoro-4-methoxy-N-methylbenzamide] | 11000
4 | CN(C(=O)c1ccccc1)[C@@H](CN1CC(O)C1)C1CCC1 [Example 35.14, N-[(1R)-1-Cyclobutyl-2-(3-hydroxyazetidin-1-yl)ethyl]-N-methylbenzamide] | 13000
5 | CN(C(=O)c1ccc(C#N)cc1)[C@H](CN1CC(O)C1)C1CCCCC1 [Example 36.1, 4-cyano-N-[(1S)-1-cyclohexyl-2-(3-hydroxyazetidin-1-yl)ethyl]-N-methylbenzamide] | 410
6 | CN(C(=O)c1ccc(Cl)cc1)[C@H](CN1CC(O)C1)C1CCCCC1 [Example 36.2, 4-Chloro-N-[(1S)-1-cyclohexyl-2-(3-hydroxyazetidin-1-yl)ethyl]-N-methylbenzamide] | 49
7 | CN(C(=O)c1cccc(C#N)c1)[C@H](CN1CC(O)C1)C1CCCCC1 [Example 36.3, 3-Cyano-N-[(1S)-1-cyclohexyl-2-(3-hydroxyazetidin-1-yl)ethyl]-N-methylbenzamide] | 920
8 | CN(C(=O)c1ccc(C#N)cc1F)[C@H](CN1CC(O)C1)C1CCCCC1 [Example 36.4, 4-Cyano-N-[(1S)-1-cyclohexyl-2-(3-hydroxyazetidin-1-yl)ethyl]-2-fluoro-N-methylbenzamide] | 330
9 | CN(C(=O)c1ccc(C(C)(C)C#N)cc1)[C@H](CN1CC(O)C1)C1CCCCC1 [Example 36.5, 4-(2-Cyanopropan-2-yl)-N-[(1S)-1-cyclohexyl-2-(3-hydroxyazetidin-1-yl)ethyl]-N-methylbenzamide] | 1900
10 | CN(C(=O)c1cc(F)cc(C#N)c1)[C@H](CN1CC(O)C1)C1CCCCC1 [Example 36.6, 3-Cyano-N-[(1S)-1-cyclohexyl-2-(3-hydroxyazetidin-1-yl)ethyl]-5-fluoro-N-methylbenzamide] | 1900
11 | CN(C(=O)c1ccc(F)cc1)[C@H](CN1CC(O)C1)C1CCCCC1 [Example 36.7, N-[(1S)-1-Cyclohexyl-2-(3-hydroxyazetidin-1-yl)ethyl]-4-fluoro-N-methylbenzamide] | 1400
12 | CN(C(=O)c1ccccc1)[C@H](CN1CC(O)C1)C1CCCCC1 [Example 36.8, N-[(1S)-1-Cyclohexyl-2-(3-hydroxyazetidin-1-yl)ethyl]-N-methylbenzamide] | 1100
13 | CCC[C@H](CN1CC(O)C1)N(C)C(=O)c1ccc(Cl)cc1 [Example 37, 4-Chloro-N-[(2R)-1-(3-hydroxyazetidin-1-yl)pentan-2-yl]-N-methylbenzamide] | 9700
14 | CCc1ccc(C(=O)N(C)[C@@H](CC(C)C)CN2CC(O)C2)cc1 [Example 38.3, 4-Ethyl-N-[(2S)-1-(3-hydroxyazetidin-1-yl)-4-methylpentan-2-yl]-N-methylbenzamide] | 2100
15 | CC(C)C[C@@H](CN1CC(O)C1)N(C)C(=O)c1cccc(C(F)F)c1 [Example 38.4, 3-(Difluoromethyl)-N-[(2S)-1-(3-hydroxyazetidin-1-yl)-4-methylpentan-2-yl]-N-methylbenzamide] | 770
16 | COc1cc(C(=O)N(C)[C@@H](CC(C)C)CN2CC(O)C2)ccc1F [Example 38.5, 4-Fluoro-N-[(2S)-1-(3-hydroxyazetidin-1-yl)-4-methylpentan-2-yl]-3-methoxy-N-methylbenzamide] | 4200
17 | COc1cc(Cl)ccc1C(=O)N(C)[C@@H](CC(C)C)CN1CC(O)C1 [Example 38.7, 4-Chloro-N-[(2S)-1-(3-hydroxyazetidin-1-yl)-4-methylpentan-2-yl]-2-methoxy-N-methylbenzamide] | 470
18 | CSc1ccc(C(=O)N(C)[C@@H](CC(C)C)CN2CC(O)C2)cc1 [Example 38.8, N-[(2S)-1-(3-Hydroxyazetidin-1-yl)-4-methylpentan-2-yl]-N-methyl-4-(methylsulfanyl)benzamide] | 830

Second part, the compound after the results:

Row | IC50 [nM] | SMILES
19 | 1100 | CN(C(=O)c1ccc(F)cc1Cl)[C@H](CN1CC(O)C1)C1CCC1 [Example 39.1, (S)-2-chloro-N-(1-cyclobutyl-2-(3-hydroxyazetidin-1-yl)ethyl)-4-fluoro-N-methylbenzamide]
20 | 410 | CN(C(=O)c1ccc(F)c(F)c1)[C@H](CN1CC(O)C1)C1CCC1 [Example 39.3, (S)—N-(1-Cyclobutyl-2-(3-hydroxyazetidin-1-yl)ethyl)-3,4-difluoro-N-methylbenzamide]
21 | 7800 | CN(C(=O)c1ccc(F)cc1F)[C@H](CN1CC(O)C1)C1CCC1 [Example 39.4, (S)—N-(1-Cyclobutyl-2-(3-hydroxyazetidin-1-yl)ethyl)-2,4-difluoro-N-methylbenzamide]
22 | 1100 | COc1ccc(C(=O)N(C)[C@H](CN2CC(O)C2)C2CCC2)c(F)c1 [Example 39.5, (S)—N-(1-Cyclobutyl-2-(3-hydroxyazetidin-1-yl)ethyl)-2-fluoro-4-methoxy-N-methylbenzamide]
23 | 480 | COc1ccc(C(=O)N(C)[C@H](CN2CC(O)C2)C2CCC2)cc1F [Example 39.6, (S)—N-(1-Cyclobutyl-2-(3-hydroxyazetidin-1-yl)ethyl)-3-fluoro-4-methoxy-N-methylbenzamide]
24 | 1400 | CN(C(=O)c1ccccc1)[C@H](CN1CC(O)C1)C1CCC1 [Example 39.7, (S)—N-(1-Cyclobutyl-2-(3-hydroxyazetidin-1-yl)ethyl)-N-methylbenzamide]
25 | 230 | CN(C(=O)c1ccc(C(F)(F)F)cc1)[C@H](CN1CC(O)C1)C1CCC1 [Example 39.8, (S)—N-(1-Cyclobutyl-2-(3-hydroxyazetidin-1-yl)ethyl)-N-methyl-4-(trifluoromethyl)benzamide]
26 | 340 | COc1ccc(C(=O)N(C)[C@H](CN2CC(O)C2)C2CCC2)cc1C [Example 39.9, (S)—N-(1-Cyclobutyl-2-(3-hydroxyazetidin-1-yl)ethyl)-4-methoxy-N,3-dimethylbenzamide]
27 | 810 | Cc1ccc(F)c(C(=O)N(C)[C@H](CN2CC(O)C2)C2CCC2)c1 [Example 39.10, (S)—N-(1-Cyclobutyl-2-(3-hydroxyazetidin-1-yl)ethyl)-2-fluoro-N,5-dimethylbenzamide]
28 | 1600 | CC[C@@H](CN1CC(O)C1)N(C)C(=O)c1ccc(Cl)c(F)c1 [Example 39.11, (S)-4-Chloro-3-fluoro-N-(1-(3-hydroxyazetidin-1-yl)butan-2-yl)-N-methylbenzamide]
29 | 160 | CN(C(=O)c1ccc(F)cc1)[C@H](CN1CC(O)C1)C1CCC1 [Example 39.13, (S)—N-(1-Cyclobutyl-2-(3-hydroxyazetidin-1-yl)ethyl)-4-fluoro-N-methylbenzamide]
30 | 250 | CN(C(=O)c1cccc(C(F)F)c1)[C@H](CN1CC(O)C1)C1CCC1 [Example 39.15, (S)—N-(1-Cyclobutyl-2-(3-hydroxyazetidin-1-yl)ethyl)-3-(difluoromethyl)-N-methylbenzamide]
31 | 9700 | C[C@@H](CN1CC(O)C1)N(C)C(=O)c1ccc(Cl)cc1 [Example 40.1, (S)-4-Chloro-N-(1-(3-hydroxyazetidin-1-yl)propan-2-yl)-N-methylbenzamide]
32 | 8500 | Cc1ccc(C(=O)N(C)[C@@H](C)CN2CC(O)C2)cc1C [Example 40.2, (S)—N-(1-(3-Hydroxyazetidin-1-yl)propan-2-yl)-N,3,4-trimethylbenzamide]
33 | 9400 | C[C@@H](CN1CC(O)C1)N(C)C(=O)c1ccc(Cl)c(F)c1 [Example 40.3, (S)-4-Chloro-3-fluoro-N-(1-(3-hydroxyazetidin-1-yl)propan-2-yl)-N-methylbenzamide]
34 | 6100 | Cc1cc(C(=O)N(C)[C@@H](C)CN2CC(O)C2)ccc1Cl [Example 40.4, (S)-4-Chloro-N-(1-(3-hydroxyazetidin-1-yl)propan-2-yl)-N,3-dimethylbenzamide]
